What was measured:
Settings in all cases: 72 h
CAL-85-1 = tested on: CAL-85-1
Summary of the method: (§1)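 Seeding of breast cancer cell lines (20 µl suspension) was done into 384-well plates pre-loaded with compound at 5 concentrations, 10-fold apart, covering a compound-specific 10,000-fold range. The plates were incubated for 72 h, read for CellTox Green fluorescence (485/520 nm), and then read for CellTiter-Glo luminescence after 10 min at room temperature. Every plate was normalised to 0.1 % DMSO and a positive kill control. Curve fitting gave the EC50, censored at the top concentration.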

DU-4475 = tested on: DU-4475
Summary of the method: as §1

HCC1143 = tested on: HCC1143
Summary of the method: as §1

CAL-51 [1] = tested on: CAL-51
Summary of the method: as §1

BT-549 = tested on: BT-549
Summary of the method: as §1

CAL-120 = tested on: CAL-120
Summary of the method: as §1

BT-474 = tested on: BT-474
Summary of the method: as §1

MDA-MB-468 = tested on: MDA-MB-468
Summary of the method: as §1

SK-BR-3 = tested on: SK-BR-3
Summary of the method: as §1

MCF-10A = tested on: MCF-10A
Summary of the method: as §1

MDA-MB-436 = tested on: MDA-MB-436
Summary of the method: as §1

MDA-MB-231 = tested on: MDA-MB-231
Summary of the method: as §1

Hs578T = tested on: Hs578T
Summary of the method: as §1

CAL-148 = tested on: CAL-148
Summary of the method: as §1

HDQ-P1 = tested on: HDQ-P1
Summary of the method: as §1

CAL-51 [2] = tested on: CAL-51; remark: listed apart in the source
Procedure: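 Drug sensitivity and resistance testing (DSRT) of breast cancer cell lines in 384-well plates, 5 concentrations in 10-fold dilutions over a compound-specific 10,000-fold range. After 72 h, cytotoxicity was read by CellTox Green fluorescence and viability by CellTiter-Glo luminescence (multiplexed), normalised to DMSO and benzethonium chloride controls. EC50 is the inflection point of the fitted dose-response curve (bottom asymptote free, so it can be relative for partial curves) and is censored at the highest tested concentration. Rows with DSS 0 (no meaningful response) were excluded.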

MFM-223 = tested on: MFM-223
Summary of the method: as §1

HCC1937 = tested on: HCC1937
Summary of the method: as §1

MDA-MB-453 = tested on: MDA-MB-453
Summary of the method: as §1

Row | SMILES | EC50, CellTiter-Glo (HCC1143) [nM] | EC50, CellTiter-Glo (BT-549) [nM] | EC50, CellTiter-Glo (BT-474) [nM] | EC50, CellTiter-Glo (MDA-MB-468) [nM] | EC50, CellTiter-Glo (SK-BR-3) [nM] | EC50, CellTiter-Glo (MDA-MB-436) [nM] | EC50, CellTiter-Glo (MDA-MB-231) [nM] | EC50, CellTiter-Glo (HCC1937) [nM] | EC50, CellTiter-Glo (MDA-MB-453) [nM] | EC50, CellTiter-Glo (CAL-85-1) [nM] | EC50, CellTiter-Glo (DU-4475) [nM] | EC50, CellTiter-Glo (CAL-51 [1]) [nM] | EC50, CellTiter-Glo (CAL-120) [nM] | EC50, CellTiter-Glo (MCF-10A) [nM] | EC50, CellTiter-Glo (Hs578T) [nM] | EC50, CellTiter-Glo (CAL-148) [nM] | EC50, CellTiter-Glo (HDQ-P1) [nM] | EC50, CellTox Green (CAL-51 [2]) [nM] | EC50, CellTiter-Glo (MFM-223) [nM]
1 | Nc1nc(Cl)nc2c1ncn2[C@@H]1O[C@H](CO)[C@@H](O)[C@@H]1F [Clofarabine] | 320 | 211 | 196 | 627 | 201 | 219 | 524 |  |  | 398 | 872 | 261 | 305 | 675 | 3150 | 601 | 482 | 108 | 
2 | CC(C)n1nc(-c2ccc3oc(N)nc3c2)c2c(N)ncnc21 [INK128] | 38.2 | 22.7 | 31.9 | 40.6 | 8.43 | 23.6 | 37.4 | 173 | 16.8 | 25.5 | 188 | 15.9 | 27.8 | 43 | 27.8 | 32.2 | 24 |  | 15.4
3 | CC(C)C(=O)Nc1ccc([N+](=O)[O-])c(C(F)(F)F)c1 [Flutamide] |  |  |  |  |  |  |  |  |  |  |  | > 10000 |  |  |  |  |  |  | 
4 | NC(=O)c1cccc2cn(-c3ccc([C@@H]4CCCNC4)cc3)nc12 [MK-4827] |  |  |  | 9350 |  | 601 |  |  |  |  | 1090 |  |  |  |  | 2630 |  |  | 
5 | Cc1cc2c(F)c(Oc3ncnn4cc(OC[C@@H](C)O)c(C)c34)ccc2[nH]1 [Brivanib] |  |  |  |  |  |  |  |  |  |  |  | 176 |  |  |  |  |  |  | 
6 | CC[C@H](CC#N)OC(=O)N[C@@H](C)c1cccc(NC(=O)Nc2ccc(-c3cnco3)c(OC)c2)c1 [AVN944] | 359 | 139 | 699 | 85 | 491 | 176 | 287 | 333 |  | 174 | 465 | 196 | 376 | 176 | 532 | 236 | 198 | 176 | 859
7 | NC(=O)NO [Hydroxyurea] |  | 14000 |  |  |  |  |  |  |  |  |  | 1290 |  |  |  |  |  | 16300 | 

Second part, led by results:

Row | EC50, CellTiter-Glo (HCC1143) [nM] | EC50, CellTiter-Glo (BT-549) [nM] | EC50, CellTiter-Glo (BT-474) [nM] | EC50, CellTiter-Glo (MDA-MB-468) [nM] | EC50, CellTiter-Glo (SK-BR-3) [nM] | EC50, CellTiter-Glo (MDA-MB-436) [nM] | EC50, CellTiter-Glo (MDA-MB-231) [nM] | EC50, CellTiter-Glo (HCC1937) [nM] | EC50, CellTiter-Glo (MDA-MB-453) [nM] | SMILES | EC50, CellTiter-Glo (CAL-85-1) [nM] | EC50, CellTiter-Glo (DU-4475) [nM] | EC50, CellTiter-Glo (CAL-51 [1]) [nM] | EC50, CellTiter-Glo (CAL-120) [nM] | EC50, CellTiter-Glo (MCF-10A) [nM] | EC50, CellTiter-Glo (Hs578T) [nM] | EC50, CellTiter-Glo (CAL-148) [nM] | EC50, CellTiter-Glo (HDQ-P1) [nM] | EC50, CellTox Green (CAL-51 [2]) [nM] | EC50, CellTiter-Glo (MFM-223) [nM]
8 | 530 | 599 | 1160 |  | > 2500 |  | 452 | > 2500 |  | COc1cc(Nc2ncc(F)c(Nc3ccc4c(n3)N(COP(=O)(O)O)C(=O)C(C)(C)O4)n2)cc(OC)c1OC [Fostamatinib] | 1560 |  |  | 405 | 451 | 938 |  | 1660 |  | 222
9 |  | 4140 |  | 1510 |  | 1040 |  |  |  | O=C(c1cc(Cc2n[nH]c(=O)c3ccccc23)ccc1F)N1CCN(C(=O)C2CC2)CC1 [Olaparib] |  |  | 45.4 | > 10000 |  |  | 1200 |  | 8300 | 
10 | 8.56 | 3.63 | 13.8 | 3.42 | 5.41 | 6.13 | 16.9 | 17.2 | 7.36 | CC(C)C[C@H](NC(=O)[C@H](CCc1ccccc1)NC(=O)CN1CCOCC1)C(=O)N[C@@H](Cc1ccccc1)C(=O)N[C@@H](CC(C)C)C(=O)[C@@]1(C)CO1 [Carfilzomib] | 8.12 | 42.8 | 13.1 | 25.3 | 90.6 | 12.4 | 33.1 | 19.1 | 5.31 | 3.9
11 | 3.09 | 1.85 | 3.4 | 0.65 | 4.12 | 2.96 |  | 6.4 | 4.84 | CO[C@H]1C[C@@H]2CC[C@@H](C)[C@@](O)(O2)C(=O)C(=O)N2CCCC[C@H]2C(=O)O[C@H]([C@H](C)C[C@@H]2CC[C@@H](O)[C@H](OC)C2)CC(=O)[C@H](C)/C=C(\C)[C@@H](O)[C@@H](OC)C(=O)[C@H](C)C[C@H](C)/C=C/C=C/C=C/1C [Sirolimus] | 0.95 | 16.1 | 2.33 | 3.4 |  | 1.24 | 3.6 | 7.92 |  | 3.87
12 | 1380 | 673 | 6720 | 3110 | 1220 |  | 1310 | 537 | 2190 | COc1cc2c(cc1-c1c(C)noc1C)ncc1[nH]c(=O)n([C@H](C)c3ccccn3)c12 [I-BET151] | 834 | 4080 | 1380 | 574 | 855 | 678 |  | 1340 | 1740 | 913
13 | 22.5 | 20.4 | 7.02 | 6.98 | 8.82 | 3.59 | 9.75 | 82.3 | 0.7 | CC[C@@H]1C(=O)N(C)c2cnc(Nc3ccc(C(=O)N[C@H]4CC[C@H](N5CCN(CC6CC6)CC5)CC4)cc3OC)nc2N1C(C)C [Volasertib] | 8.51 | 25.4 | 16.9 | 46.6 | 33.2 | 76.9 | 8.07 | 53.1 | 20.7 | 4.62

From the supplement of paper PMC4862054
